LD50 data for four molecules are collected here from patent US3979513A, “1'-Substituted-9,10-dihydroanthracene-9-spiro-4'-piperidine derivatives” (priority 1974, dated 1976).

The data set is described as follows: acute toxicity (LD50) in mice. To be noted: mouse, in vivo. The method, then: The corresponding intravenous LD50 is 40 mg./kg. Other LD50 values for compounds of the invention when dosed intravenously are as follows: […]
The mark [1] stands for this setting: iv, dosed intravenously (table 1), read-out: LD50.

Where two headings read alike, the source gives them in different places.

Consider `CN1CCC2(CC1)c1ccccc1C(O)c1ccccc12` [10-hydroxy-1'-methyl-9,10-dihydroanthracene-9-spiro-4'-piperidine], for which the LD50 was 40 mg/kg (mice, intravenous, read-out: intravenous LD50) and over 250 mg/kg (mice, oral, read-out: oral LD50). Take `CC(=O)Oc1cccc2c1Cc1ccccc1C21CCN(C)CC1` [Me 4-OAc H H H, 4-acetoxy-1'-methyl-9,10-dihydroanthracene-9-spiro-4'-piperidine]: the LD50 under setting [1] worked out at 43 mg/kg. For `Cc1ccc2c(c1)C1(CCN(C)CC1)c1ccccc1C2O` (centres unmarked) [Me 2-Me H OH H, 1',2-dimethyl-10-hydroxy-9,10-dihydroanthracene-9-spiro-4'-piperidine], the LD50 under setting [1] came out at 37 mg/kg.

As to `CN1CCC2(CC1)c1ccccc1C(C)(O)c1c(O)cccc12` (centres unmarked) [Me 4-OH H OH Me, 4,10-dihydroxy-1',10-dimethyl-9,10-dihydroanthracene-9-spiro-4'-piperidine], under setting [1], the LD50 was found to be 25 mg/kg.

Usually LD50 stands for the dose expected to kill half of the subjects tested.
